# From article PMC2904498 (2010)
# Like-named read-outs stand apart in the source and are kept apart here.
# How the values were obtained:
# [1] = molecular target: T1, T. brucei neutral sphingomyelinase (TbnSMase) (Trypanosoma brucei, UniProt B9WNA2); type: biochemical
# T1 sequence (B9WNA2 1-580): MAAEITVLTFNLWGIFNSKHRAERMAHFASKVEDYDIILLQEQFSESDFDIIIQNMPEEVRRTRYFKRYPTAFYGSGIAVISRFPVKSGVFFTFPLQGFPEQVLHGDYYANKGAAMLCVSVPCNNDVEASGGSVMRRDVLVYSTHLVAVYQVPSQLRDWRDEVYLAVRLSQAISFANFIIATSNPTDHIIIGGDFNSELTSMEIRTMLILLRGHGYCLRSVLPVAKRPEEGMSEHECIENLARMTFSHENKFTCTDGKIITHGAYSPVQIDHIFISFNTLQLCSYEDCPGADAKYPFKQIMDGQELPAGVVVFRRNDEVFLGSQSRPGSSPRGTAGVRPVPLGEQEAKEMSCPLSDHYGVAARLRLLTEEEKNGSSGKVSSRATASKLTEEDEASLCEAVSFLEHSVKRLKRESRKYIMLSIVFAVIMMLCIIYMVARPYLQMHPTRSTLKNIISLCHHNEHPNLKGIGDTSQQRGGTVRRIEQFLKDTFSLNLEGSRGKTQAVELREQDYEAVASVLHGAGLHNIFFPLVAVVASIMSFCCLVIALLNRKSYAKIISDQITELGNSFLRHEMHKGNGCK
# [2] = molecular target: T1, T. brucei neutral sphingomyelinase (TbnSMase); type: biochemical; remark: listed apart in the source
Compound,IC50 [1],IC50 [2]
O=C(/C=C/c1ccc(/C=C/C(=O)Nc2ccc(C3=NCCN3)cc2)cc1)Nc1ccc(C2=NCCN2)cc1 [GW4869],14.4 ± 2.3 µM,
CCCCCCCCCCCCCCCCCCOCC(COP(=O)([O-])OCC[N+](C)(C)C)OC (stereo not drawn) [edelfosine],,21 ± 3.2 µM
CCCC[C@@H](C)/C=C(C)/C=C(\C)C(=O)NC1=C[C@@](O)(/C=C/C=C/C=C/C(=O)NC2=C(O)CCC2=O)[C@@H]2O[C@@H]2C1=O [Manumycin A],24.6 ± 4.6 µM,
